Laboratory results: US8772250B2, “Compositions and methods for treating ischemia and ischemia-reperfusion injury” (Ischemix, LLC, priority 2010, dated 2014)
One block for each compound: values may come before it. Peptide text beside a SMILES is read from it.

What was measured:
[1] = system: myocardial ischemia-reperfusion injury; assay: Rat model of myocardial I/R injury (MI/AR ratio); format: in vivo; conditions: rat model of myocardial I/R injury; data not shown
Excerpt: A rat model of myocardial I/R injury was used as an in vivo screen to determine if certain lipoic acid derivative compounds are cardio-protective (e.g., against mycoardial ischemia-reperfusion injury). This model is analogous to the ischemia-reperfusion injury observed in cardiac patients following coronary occlusions and cardiac surgery procedures, such as coronary artery bypass grafting (CABG) (Matsui, T., Tao, J., del Monte, F., Lee, K.-H. et al., Akt Activation Preserves Cardiac Function and Prevents Injury After Transient Cardiac Ischemia In vivo, Circulation 2001, 104:330).
The circumflex branch of the left coronary artery was ligated temporarily to induce regional ischemia in the left ventricular mass, followed by the injection of fluorescent microspheres to delineate the ischemic region. The animals were sacrificed about 24 hours after reperfusion and the hearts were excised, sectioned and stained with triphenyltetrazolium. The direct impact of the pharmacologic intervention was determined by measuring the myocardial infarct area (MI), the ischemic area at risk (AR) and the left ventricular area (LV). The reduction of MI over the AR (MI/AR ratio) was used as the primary measure of drug efficacy relative to vehicle controls.
Male Sprague-Dawley rats between 300 and 350 gm were used for these experiments. Anesthesia was induced with 3-4% isoflurane in an induction chamber. After induction, anesthesia was maintained at a surgical plane with 1.5-2.0% isoflurane, administered by a Rodent Ventilator through a 16-gauge angiocatheter introduced orally into the trachea. The ventilator was set at 2.5 cc at a rate of 60-65 breaths per minute to maintain ventilation during surgery. The core temperature of the animal was monitored and maintained at 37° C. using a rectal probe and a heating lamp attached to a temperature controller.
A left anterior thoracotomy was performed and the heart was exposed using a vertical pericardotomy. The circumflex branch of the left coronary artery (LCx) was ligated approximately 4 mm from the aorta using a cardiovascular 7.0 monofilament suture on an 11 mm needle to induce ischemia in the left ventricle.
Fluorescent microspheres (300 μL) were injected into the left ventricular cavity 10-20 minutes after the ligation to delineate the ischemic area. The suture was removed 30 minutes after ligation to reperfuse the ischemic area and the ischemic area was checked for reperfusion.
The chest was then closed in layers using absorbable suture (Dexon 5-0) for the muscle layers and monofilament Nylon 5-0 suture was used to close the cutaneous layer. The animals were allowed to recover, then were returned to the colony.
Twenty-four hours after reperfusion, anesthesia was induced using ketamine hydrochloride and the chest was opened. The animals were sacrificed with 15% potassium chloride aqueous solution (w/v) injected into the LV cavity to arrest the heart in diastole. The heart was excised distal to the aortic valve and washed with saline to remove the blood. Sagittal slices of the heart were obtained between the base of the ventricle and the apex. Five slices of heart tissue were obtained, each 2 mm thick. The slices were immersed in a 1% 2,3,5-triphenyl-2H-tetrazolium chloride (TTC) in saline solution and then stored in the dark for 30 minutes to stain.
Images of the slices were obtained under bright field (to observe the TTC staining) and under fluorescence (to observe the microspheres). The area at risk was determined by the absence of microspheres and the infarct area was determined by the absence of TTC staining.
In vivo experiments employing a rat model of myocardial I/R injury were performed as described in Example 8. Catheterized (jugular vein) rats were used for intravenous dose administration at time points prior to and/or including 0.25 h.

[2] = Oxygen Radical Absorbance Capacity (ORAC) assay
Excerpt: Peroxyl radicals are one species of reactive oxygen produced by cells during reperfusion. The presence of peroxyl radicals can be detected by fluorescein oxidation. In the presence of peroxyl radicals, fluorescein fluorescence will decay over time. In the presence of an oxygen radical scavenger, the rate of decay is diminished. The change in the rate of decay between control and in the presence of scavengers is used to measure the peroxyl radical scavenging ability of a test compound.
Each compound tested was diluted to a concentration ranging from 25 μM to 250 μM in 10 mM phosphate buffer (pH=7.4) containing 10 nM fluorescein. The buffer and compound were incubated at 37° C. for 10 minutes. After the incubation, flourescein fluorescence was measured using a plate reader (Molecular Devices Flexstation II, Ex=485, Em=520). Baseline fluorescence measurements were recorded for 15 minutes before 2,2′-azobis(2-methylpropionamidine) dihydrochloride (AAPH) was added. The fluorescence decay was recorded for 90 minutes. The fluorescence decay without compound was subtracted from the fluorescence decay with compound. The slope of the decay vs. concentration is reported as the absorbance capacity.

CHO M1-WT3 cells = assay: Cytosolic calcium overload assay, carbachol stimulated; format: cell-based, Chinese hamster; conditions: 200 nM carbachol, variant concentrations
Excerpt: Cytosolic calcium increases in the CHO M1-WT3 cells when stimulated with carbachol ([Molecular Devices, FlexStation Application Note 2, Comparison of FLIPR® and FLEXstation™ for Calcium Mobilization Assays]) and may be detected with a fluorescent dye that binds calcium. An increase in fluorescence following carbachol stimulation is interpreted as an increase in cytosolic calcium. Chinese hamster ovary (CHO) cells were allowed to adhere to the bottom of a 96-well culture plate. The fluorescent dye and a test sample were placed on the plate and allowed to be taken up by the cells. The fluorescence level was measured every two seconds using a plate reader (Flexstation II, Molecular Devices, Sunnyvale Calif.). The cells were stimulated with carbachol and fluorescent data reported as the peak increase in fluorescence above baseline following carbachol stimulation. Data were normalized to the peak carbachol response in the control sample.
CHO cells from the cell line CHO-M1-WT3 were grown in Hams F12 medium supplemented with 10% FBS and 5 μg/mL G418 to maintain expression of the M1 muscarinic receptor. Cells were seeded the night before the experiment at a concentration of 30,000 cells/well in a volume of 100 μL per well of black walled, clear bottomed, 96-well microplates (“assay plates”). Cells were incubated at 37° C. and 5% CO2 overnight. […] The cells were placed into the FlexStation system to monitor fluorescence before and after the addition of 50 μL of 1 μM carbachol for a final concentration of 200 nM. Fluorescence was measured for 17 seconds prior to carbachol addition and 43 seconds following carbachol addition. The Fluo-4 dye was excited at a wavelength of 485 nm and emission measured at 525 nm. The Calcium-3 dye was excited at a wavelength of 494 nm and emission measured at 525 nm. The calcium response was reported as the peak fluorescence minus the baseline fluorescence calculated as the average of the fluorescence prior to carbachol addition.

Akt [3] = assay: Cytoblot assay for Akt activation in A549 cells; format: cell-based, human
Procedure: The ability of RLip-EA-OH to increase phosphorylated Akt was assayed using an in-cell western blot, or cytoblot. A549 cells (human non-small cell lung cancer cell line) were selected because these cells can be manipulated to increase or decrease the level of phosphoryated Akt. The cells were inoculated onto culture plates and allowed to adhere to the bottom, then treated, fixed, and permeabilized. Following permeabilization, the cells were treated with antibodies specific for either phospho-Akt or total Akt. The cells were then treated with fluorescent secondary antibodies to quantify the amount of bound primary antibody. Total Akt and phospho-Akt were simultaneously detected.
A549 cells were plated in 384 well black-wall, clear-bottom, cell culture-treated microtiter plates at 70% confluence. Cells were incubated overnight to allow cell attachment. The media was changed to low serum (0.1%, fetal bovine serum [FBS]) and the cells were incubated for another 24 hours. Cells were treated with test compounds, fixed and permeabilized for the Akt assay. The fixative was 3.7% formaldehyde in phosphate buffered saline. The permeabilization buffer was 0.5% Triton X-100 in phosphate buffered saline. After permeabilization of cells, the amounts of total Akt and phosphorylated Akt at either of the two phosphorylation sites (threonine-308 and serine-473) were determined at 7 test concentrations, each performed in quadruplicate. The phospho-Akt data were normalized to total Akt and background subtracted for analysis.
Following overnight serum starvation to reduce basal Akt phosphorylation, cells were stimulated with vehicle, RLip-EA-OH, or RLip-OH. Cells were treated for 45 minutes or 3 hours and studied for phosphorylation at serine-473 or threonine 308, respectively.

Akt [4] = assay: Immunohistochemistry assay for phosphorylated Akt in H9c2 cells; format: cell-based, rat; conditions: co-treatment with LY294002 (25 μM), 30 minutes prior to RLip-EA-OH
Procedure: The ability of RLip-EA-OH to increase phosphorylated Akt was assayed in H9c2 cells by immunocytochemistry followed by visualization using microscopy. H9c2 cells are a cell line derived from rat cardiac myocytes and can be manipulated to increase or decrease the level of phosphoryated Akt. Cells were inoculated onto culture plates and allowed to adhere to the bottom, treated, fixed, and permeabilized. Following permeabilization, cells were treated initially with specific phospho-Akt antibodies followed by fluorescent secondary antibodies to quantify the amount of bound primary antibody.
H9c2 cells were plated in 12 well cell culture treated plates at 70% confluence. Cells were incubated overnight to allow cell attachment. The media was changed to low serum (0.5%, fetal bovine serum [FBS]) and cells incubated for another 48 hours. Cells were treated for 3 hours with either vehicle, RLip-EA-OH (50 μM), or co-treatment with LY294002 (25 μM), fixed with 3.7% formaldehyde in phosphate buffered saline and permeabilized with 0.5% Triton X-100 in phosphate buffered saline. After permeabilization, the cells were treated with antibody specific for Akt phosphorylated at threonine-308, followed by treatment with a fluorescent labeled secondary antibody.

IGF1R = IGF1R (Homo sapiens, UniProt P08069); assay: IGF1R tyrosine kinase activation assay (mobility shift); format: biochemical
Chain of IGF1R (P08069 959-1367 limits assumed, species assumed): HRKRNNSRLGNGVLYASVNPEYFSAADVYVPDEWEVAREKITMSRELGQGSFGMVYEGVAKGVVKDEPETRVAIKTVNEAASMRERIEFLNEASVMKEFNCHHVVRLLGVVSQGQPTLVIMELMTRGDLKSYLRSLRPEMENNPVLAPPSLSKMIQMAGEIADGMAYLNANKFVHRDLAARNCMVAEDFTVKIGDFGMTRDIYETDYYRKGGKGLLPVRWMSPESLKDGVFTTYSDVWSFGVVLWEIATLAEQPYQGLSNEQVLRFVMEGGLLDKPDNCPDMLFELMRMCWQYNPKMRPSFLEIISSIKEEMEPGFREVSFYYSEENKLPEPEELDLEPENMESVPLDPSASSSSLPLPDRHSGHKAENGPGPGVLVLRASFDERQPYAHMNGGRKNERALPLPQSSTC
Excerpt: (§1) IGF1R and Src tyrosine kinases have endogenous levels of activity in the presence of ATP and substrate. This activity was readily measured using a mobility shift assay using a Caliper LabChip® 3000 and a 12-sipper LabChip® to detect both phosphorylated and unphosphorylated substrate (Caliper Life Sciences, Discovery Alliances and Services Division). Enzyme, substrate and ATP concentrations were optimized for each assay. For the IGF1R assay, the final concentrations of the enzyme, peptide and ATP were 20 nM, 1.5 μM, and 1220 μM, respectively. For the Src assay, the final concentrations of the enzyme, peptide and ATP were 2.5 nM, 1.5 μM, and 17 μM, respectively.
(§2) RLip-EA-OH was evaluated at multiple concentrations for an effect on activation of IGF1 receptor kinase (IGF1R) and Src. The compounds tested activated IGF1R and Src with different selectivities.

insulin receptor kinase = biological target: T1, insulin receptor kinase (Homo sapiens, UniProt P06213); assay: IRK activation assay (mobility shift kinase assay); format: biochemical
T1 construct: insulin receptor kinase domain (Millipore catalog #14-466, 80 nM); purchased Millipore 14-466
T1 sequence (P06213 1023-1298 limits assumed): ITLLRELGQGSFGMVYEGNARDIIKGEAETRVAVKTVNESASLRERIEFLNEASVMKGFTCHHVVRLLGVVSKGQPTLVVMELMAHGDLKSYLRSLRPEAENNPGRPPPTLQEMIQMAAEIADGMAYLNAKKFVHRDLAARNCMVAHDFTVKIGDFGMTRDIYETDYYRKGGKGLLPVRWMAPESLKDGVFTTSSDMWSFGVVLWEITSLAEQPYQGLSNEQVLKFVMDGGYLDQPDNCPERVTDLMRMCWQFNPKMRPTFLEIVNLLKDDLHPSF
Excerpt: Insulin receptor kinase activity was readily measured by a mobility shift assay using a Caliper LabChip® 3000 and a 12-sipper LabChip® to detect both phosphorylated and unphosphorylated substrate (Caliper Life Sciences, Discovery Alliances and Services Division, Hanover, Md.). The mobility-shift kinase assay uses a micro fluidic chip to measure the conversion of a fluorescent peptide substrate to a phosphorylated product. The reaction mixture from a microtiter plate well was introduced through a capillary sipper onto the chip and the nonphosphorylated substrate and phosphorylated product were separated by electrophoresis and detected via laser-induced fluorescence. […] The catalytic subunits of tyrosine kinases have endogenous levels of activity in the presence of ATP and substrate, thus the results are presented as a % of control.
Specifically, each test compound was diluted to 25 times its assay concentration with 100% DMSO and added to 12 μL of an assay buffer solution (100 mM HEPES, 10 mM MnCl2, 5 mM B-GP, and 0.002% Brij) containing dithiotheritol (DTT, 2 mM) and insulin receptor kinase domain (Millipore catalog #14-466, 80 nM) prior to pre-incubation at room temperature for 15 minutes. […] The samples were placed on the LabChip 3000 to measure the amount of parent substrate and phosphorylated product. […]

Src = Src (Homo sapiens, UniProt P12931); assay: Src tyrosine kinase activation assay (mobility shift); format: biochemical
Chain of Src (P12931 whole entry, species assumed): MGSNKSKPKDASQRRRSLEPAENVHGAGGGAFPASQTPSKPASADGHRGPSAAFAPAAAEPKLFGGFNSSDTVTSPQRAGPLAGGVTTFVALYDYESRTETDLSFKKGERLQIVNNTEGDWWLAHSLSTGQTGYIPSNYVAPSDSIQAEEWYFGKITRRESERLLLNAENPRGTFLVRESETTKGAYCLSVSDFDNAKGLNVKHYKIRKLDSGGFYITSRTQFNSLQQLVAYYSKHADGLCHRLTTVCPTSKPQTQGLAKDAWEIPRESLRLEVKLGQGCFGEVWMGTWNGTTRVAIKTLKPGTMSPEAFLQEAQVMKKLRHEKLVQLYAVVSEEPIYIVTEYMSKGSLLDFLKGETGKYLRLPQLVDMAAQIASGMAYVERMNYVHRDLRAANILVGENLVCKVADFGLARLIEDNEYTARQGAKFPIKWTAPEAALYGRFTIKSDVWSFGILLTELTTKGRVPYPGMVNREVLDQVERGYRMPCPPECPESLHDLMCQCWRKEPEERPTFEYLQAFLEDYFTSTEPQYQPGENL
Excerpt: as §1, §2

[5] = system: myocardial ischemia-reperfusion injury; assay: Rat model of myocardial I/R injury (MI/AR ratio); format: in vivo; conditions: rat

Compound: CC(=O)N[C@@H](CCC(=O)O)C(=O)N[C@@H](C)C(=O)O [Ac-EA-OH, N-acetyl-L-glutamyl-L- alanine, reference compound] (Ac-Glu-Ala-OH)
efficacy compared to vehicle [1]: statistically similar to vehicle
peroxyl radical absorption capability ([2]; ORAC assay): no appreciable peroxyl radical absorption capability
ORAC Value relative to RLip-OH ([2]; mean of 3-4 experiments): 8 ± 5
effect on carbachol stimulated flux in cytosolic calcium (CHO M1-WT3 cells): minimal effect

Compound: O=c1cc(N2CCOCC2)oc2c(-c3ccccc3)cccc12 [LY294002, 2-(4-morpholinyl)-8-phenyl-4H-1-benzopyran-4-one, reference compound]
effect on RLip-EA-OH-increased phosphorylation of Akt (Akt [3]; cotreatment with 5 μM LY294002, 3 hours): completely inhibited
effect on fluorescence intensity from Akt phosphorylation induced by RLip-EA-OH (Akt [4]): diminished the fluorescence intensity

IGF1R % Increase in activity above vehicle control (IGF1R; 300 μM): 37 ± 4%
IRK % Increase in activity above vehicle control (insulin receptor kinase; 300 μM): 48 ± 1%
Src % Increase in activity above vehicle control (Src; 300 μM): 15 ± 1%
Compound: O=C(O)CCCC[C@@H]1CCSS1 [RLip-OH, (R)-lipoic acid, reference compound]
ORAC Value relative to RLip-OH ([2]; mean of 3-4 experiments): 100 ± 6
effect on carbachol stimulated flux in cytosolic calcium (CHO M1-WT3 cells): minimal effect
increase in phosphorylated Akt at serine 473 (Akt [3]; 45 minutes of treatment): 2 fold
amount of phosphorylated Akt relative to total Akt (Akt [3]; variant concentrations): increased the amount of phosphorylated Akt relative to total Akt in a dose dependent manner
Reduction of MI:AR Ratio Relative to Vehicle (%) ([5]; 2 mg/kg IC, Table 7 meta analysis): 19 ± 7 %

IGF1R % activity above control (±SEM) (IGF1R; 100 μM): −4 ± 10%
AVG % activity above control (±SEM) (insulin receptor kinase; 100 μM): 4 ± 12%
Src % activity above control (±SEM) (Src; 100 μM): 19 ± 1%
Compound: C[C@H](NC(=O)[C@H](CCC(=O)O)NC(=O)CCCC[C@H]1CCSS1)C(=O)O [SLip-EA-OH, N-(S)-lipoyl-L-glutamyl-L- alanine]
ORAC Value relative to RLip-EA-OH ([2]; mean of 3-4 experiments): 89 ± 4
MI/AR ([5]; 1 mg/kg single bolus IC 15 minutes prior to ischemia): 0.401
MI/AR ([5]; 2 mg/kg single bolus IC 15 minutes prior to ischemia): 0.400
